In US20020006958A1, “Substituted aminosalicylic acid amides with fungicidal effect and intermediate products for production thereof” (priority 1997, published 2002) one finds chromatographic logP data, which are given here for four compounds.

This data set is described as follows: HPLC logP determination. To be noted: stated in the preparation examples. It counts as physicochemical.
As for `O=CNc1cccc(C(=O)Nc2ccc(Oc3ncnc(Oc4ccccc4)c3F)cc2)c1O` [Example 1, N-[4-(5-fluoro-6-phenoxy-pyrimidin-4-yloxy)-phenyl]-3-formyl-amino-2-hydroxy-benzamide], the chromatographic logP was found to be 3.31.

`O=C(Nc1ccc(Oc2ncnc(Oc3ccccc3)c2F)cc1)c1cccc([N+](=O)[O-])c1OCc1ccccc1` [Example V-1, 2-benzyloxy-N-[4-(5-fluoro-6-phenoxy-pyrimidin-4-yloxy)-phenyl]-3-nitro-benzamide]: the chromatographic logP was found to be 4.56.

In turn, `Nc1ccc(Oc2cc(Cl)ncn2)cc1` [XI-1, 4-(4-aminophenoxy)-6-chloro-pyrimidine] had a chromatographic logP of 0.65.

The compound `Nc1ccc(Oc2cc(Oc3ccccc3Cl)ncn2)cc1` [VII-a-1, 4-(4-aminophenoxy)-6-(2-chlorophenoxy)-pyrimidine] had a chromatographic logP of 1.96.
